{"source": "patent US20060069132A1", "about": "“Azolecarboxamide herbicides” (priority 2004, published 2006)", "key": {"wheat": {"tested_on": "wheat", "assay": "Test C postemergence herbicide test", "format": "in vivo, Triticum aestivum", "conditions": "postemergence, scale 0 to 100", "method_in_brief": "(§1)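 Greenhouse test with a 12–14 day hold after application and visual comparison with controls. Emerged plants were 1- to 4-leaf stage (2–18 cm) when sprayed postemergence, and the paddy barnyardgrass was at 2 leaves under flooded conditions. 100 = complete control.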"}, "barnyardgrass": {"tested_on": "barnyardgrass", "assay": "Test E pre-/postemergence herbicide test", "format": "in vivo, Echinochloa crus-galli", "conditions": "Preemergence", "method_in_brief": "(§2)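 Pre-/postemergence spray, solvent + surfactant vehicle; post timing 1- to 4-leaf stage (2–18 cm). Greenhouse 12–14 d. Visual score 0 (no effect) to 100 (complete control) relative to controls.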"}, "downy bromegrass": {"tested_on": "downy bromegrass", "assay": "Test E pre-/postemergence herbicide test", "format": "in vivo, Bromus tectorum", "conditions": "Preemergence", "method_in_brief": "as §2"}, "blackgrass": {"tested_on": "blackgrass", "assay": "Test C postemergence herbicide test", "format": "in vivo, Alopecurus myosuroides", "method_in_brief": "as §1"}, "quackgrass": {"tested_on": "quackgrass", "assay": "Test E pre-/postemergence herbicide test", "format": "in vivo, Elytrigia repens", "conditions": "Preemergence", "method_in_brief": "as §2"}, "tropical spiderwort": {"tested_on": "tropical spiderwort", "assay": "Test E pre-/postemergence herbicide test", "format": "in vivo, Commelina benghalensis", "conditions": "Preemergence", "method_in_brief": "as §2"}, "Italian ryegrass": {"tested_on": "Italian ryegrass", "assay": "Test C postemergence herbicide test", "format": "in vivo, Lolium multiflorum", "conditions": "postemergence, scale 0 to 100", "method_in_brief": "as §1"}, "field bindweed": {"tested_on": "field bindweed", "assay": "Test E pre-/postemergence herbicide test", "format": "in vivo, Convolvulus arvensis", "conditions": "Preemergence", "method_in_brief": "as §2"}, "itchgrass": {"tested_on": "itchgrass", "assay": "Test E pre-/postemergence herbicide test", "format": "in vivo, Rottboellia cochinchinensis", "conditions": "Preemergence", "method_in_brief": "as §2"}, "windgrass": {"tested_on": "windgrass", "assay": "Test C postemergence herbicide test", "format": "in vivo, Apera spica-venti", "conditions": "postemergence, scale 0 to 100", "method_in_brief": "as §1"}, "[1]": {"conditions": "250 g ai/ha, scale 0 (no effect) to 100 (complete control)"}, "[2]": {"conditions": "500 g ai/ha, scale 0 (no effect) to 100 (complete control)"}}}
{"smiles": "Cc1nn(C(C)(C)C)nc1C(=O)Nc1cccc(C(=O)N2CC=CC2)c1", "note": "[Compound 393]", "values": [{"measurement": "Plant response rating, Wheat", "setting": "wheat; 125 g ai/ha", "result": 40}, {"measurement": "Plant response rating, Wheat", "setting": "wheat; 62 g ai/ha", "result": 35}, {"measurement": "Plant response rating, Barnyardgrass", "setting": "barnyardgrass; 62 g ai/ha, scale 0 to 100", "result": 0}, {"measurement": "Plant response rating, Barnyardgrass", "setting": "barnyardgrass; 125 g ai/ha, scale 0 to 100", "result": 60}, {"measurement": "Plant response rating, Barnyardgrass", "setting": "barnyardgrass; [1]", "result": 80}, {"measurement": "Plant response rating, Barnyardgrass", "setting": "barnyardgrass; [2]", "result": 80}, {"measurement": "Plant response rating, Bromegrass, Downy", "setting": "downy bromegrass; 62 g ai/ha, scale 0 to 100", "result": 0}, {"measurement": "Plant response rating, Bromegrass, Downy", "setting": "downy bromegrass; 125 g ai/ha, scale 0 to 100", "result": 10}, {"measurement": "Plant response rating, Bromegrass, Downy", "setting": "downy bromegrass; [1]", "result": 60}, {"measurement": "Plant response rating, Bromegrass, Downy", "setting": "downy bromegrass; [2]", "result": 80}, {"measurement": "Plant response rating, Blackgrass", "setting": "blackgrass; Postemergence, 250 g ai/ha, scale 0 to 100, 0 no effect, 100 complete control", "result": 65}, {"measurement": "Plant response rating, Blackgrass", "setting": "blackgrass; postemergence, 125 g ai/ha, scale 0 to 100", "result": 60}, {"measurement": "Plant response rating, Blackgrass", "setting": "blackgrass; postemergence, 31 g ai/ha, scale 0 to 100", "result": 55}, {"measurement": "Plant response rating, Blackgrass", "setting": "blackgrass; postemergence, 62 g ai/ha, scale 0 to 100", "result": 60}, {"measurement": "Plant response rating, Quackgrass", "setting": "quackgrass; 62 g ai/ha, scale 0 to 100", "result": 50}, {"measurement": "Plant response rating, Quackgrass", "setting": "quackgrass; 125 g ai/ha, scale 0 to 100", "result": 50}, {"measurement": "Plant response rating, Quackgrass", "setting": "quackgrass; [1]", "result": 60}, {"measurement": "Plant response rating, Quackgrass", "setting": "quackgrass; [2]", "result": 60}, {"measurement": "Plant response rating, Spiderwort", "setting": "tropical spiderwort; 125 g ai/ha, scale 0 to 100", "result": 100}, {"measurement": "Plant response rating, Spiderwort", "setting": "tropical spiderwort; [1]", "result": 100}, {"measurement": "Plant response rating, Spiderwort", "setting": "tropical spiderwort; [2]", "result": 100}, {"measurement": "Plant response rating, Ryegrass, Italian", "setting": "Italian ryegrass; 125 g ai/ha", "result": 60}, {"measurement": "Plant response rating, Ryegrass, Italian", "setting": "Italian ryegrass; 62 g ai/ha", "result": 55}, {"measurement": "Plant response rating, Bindweed, Field", "setting": "field bindweed; 62 g ai/ha, scale 0 to 100", "result": 0}, {"measurement": "Plant response rating, Bindweed, Field", "setting": "field bindweed; 125 g ai/ha, scale 0 to 100", "result": 20}, {"measurement": "Plant response rating, Bindweed, Field", "setting": "field bindweed; [1]", "result": 60}, {"measurement": "Plant response rating, Bindweed, Field", "setting": "field bindweed; [2]", "result": 70}, {"measurement": "Plant response rating, Itchgrass", "setting": "itchgrass; 62 g ai/ha, scale 0 to 100", "result": 0}, {"measurement": "Plant response rating, Itchgrass", "setting": "itchgrass; 125 g ai/ha, scale 0 to 100", "result": 10}, {"measurement": "Plant response rating, Itchgrass", "setting": "itchgrass; [1]", "result": 30}, {"measurement": "Plant response rating, Itchgrass", "setting": "itchgrass; [2]", "result": 60}, {"measurement": "Plant response rating, Windgrass", "setting": "windgrass; 125 g ai/ha", "result": 55}, {"measurement": "Plant response rating, Windgrass", "setting": "windgrass; 62 g ai/ha", "result": 45}]}
